# Values joined by “and” are separate entries in the source; they are usually repeats but may differ in a detail not shown here. Equal entries are not always repeated. Where two headings read alike, the source gives them in different places.
# What was measured:
# MAO-B vs MAO-A = assay: Selectivity index of ChEMBl reference structures (MAO-A and MAO-B IC50); type: biochemical, human; conditions: for Selectivity: selectivity index calculated from ChEMBl IC50 values of MAO-A and MAO-B
# [1] = set-up: method as in literature (reference not given); conditions: ref literature (reference not given); cited from earlier work
# [2] = PAMPA-BBB parallel artificial membrane permeability assay; conditions: for Papp at 4 h, 100 µM: PAMPA; for Experimental log Pe value / Membrane retention: PAMPA-BBB, pH 7.4, 37°C, 4 hours, n=9, ± SD; for Experimental log Pe value: Pe in cm/s
# [3] = Octanol/water partitioning, shake-flask method (log P, log D^pH); conditions: n-octanol/Britton-Robinson buffer
# Monoamine oxidase B = target: T1, Monoamine oxidase B (Homo sapiens, UniProt P27338); conditions: cited from earlier work
# T1 sequence (P27338 2-520): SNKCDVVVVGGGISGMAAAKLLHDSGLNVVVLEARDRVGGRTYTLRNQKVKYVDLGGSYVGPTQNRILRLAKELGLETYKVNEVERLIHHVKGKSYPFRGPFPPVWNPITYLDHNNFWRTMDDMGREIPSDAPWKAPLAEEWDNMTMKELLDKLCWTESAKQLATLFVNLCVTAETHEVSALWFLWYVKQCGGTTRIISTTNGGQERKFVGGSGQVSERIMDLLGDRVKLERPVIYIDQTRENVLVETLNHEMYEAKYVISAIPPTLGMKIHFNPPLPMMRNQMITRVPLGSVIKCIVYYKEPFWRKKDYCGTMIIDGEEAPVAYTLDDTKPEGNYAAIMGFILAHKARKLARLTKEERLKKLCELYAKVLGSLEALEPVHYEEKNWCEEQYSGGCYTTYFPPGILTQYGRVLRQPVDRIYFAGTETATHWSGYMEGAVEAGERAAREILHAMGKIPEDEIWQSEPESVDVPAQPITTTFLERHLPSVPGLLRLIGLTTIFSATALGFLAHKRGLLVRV
# [4] = PAMPA, pH 7.4
# MAO-B = conditions: cited from earlier work; for IC50: in vitro; for MAO-B selectivity index: MAO-B over MAO-A
# Monoamine oxidase A = target: T2, Monoamine oxidase A (Homo sapiens, UniProt P21397); conditions: cited from earlier work
# T2 sequence (P21397 1-527): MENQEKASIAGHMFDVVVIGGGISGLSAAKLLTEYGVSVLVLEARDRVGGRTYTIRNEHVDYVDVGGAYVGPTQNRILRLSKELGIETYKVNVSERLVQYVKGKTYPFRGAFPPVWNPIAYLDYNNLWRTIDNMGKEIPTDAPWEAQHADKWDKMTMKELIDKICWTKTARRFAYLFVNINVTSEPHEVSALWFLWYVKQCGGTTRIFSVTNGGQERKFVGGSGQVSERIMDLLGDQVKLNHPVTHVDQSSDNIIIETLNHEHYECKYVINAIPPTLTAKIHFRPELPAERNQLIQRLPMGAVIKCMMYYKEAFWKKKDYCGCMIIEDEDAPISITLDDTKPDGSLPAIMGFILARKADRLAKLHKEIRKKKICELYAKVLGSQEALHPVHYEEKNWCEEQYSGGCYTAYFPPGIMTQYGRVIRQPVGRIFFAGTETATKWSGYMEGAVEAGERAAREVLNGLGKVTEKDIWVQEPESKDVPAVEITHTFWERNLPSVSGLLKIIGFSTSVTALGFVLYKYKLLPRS
smiles,measurement,setting,value
O=C(Nc1ccc(O)c(O)c1)c1coc2ccccc2c1=O [CHEMBL1814066],Selectivity,MAO-B vs MAO-A,2.69
O=C1/C(=C/c2cccc(Cl)c2)Cc2cc(O)ccc21 [CHEMBL3924440],Selectivity,MAO-B vs MAO-A,5.233
O=C1/C(=C/c2cccc(O)c2)Cc2cc(O)ccc21 [CHEMBL3891485],Selectivity,MAO-B vs MAO-A,1.242 and 1.24
O=C1/C(=C/c2ccc(Br)cc2)Cc2cc(O)ccc21 [CHEMBL3950873],Selectivity,MAO-B vs MAO-A,198.113
C=C[C@H]1C[N@@]2CC[C@H]1C[C@H]2[C@H](O)c1ccnc2ccc(OC)cc12 [Quinine],log BB literature value,[1],0.60
same,"Papp at 4 h, 100 µM",[2],15.5 ×10⁻⁶ cm/s
COc1cc2c(cc1C1COc3cc(O)ccc3C1=O)OCO2 (stereo not shown) [Onogenin],logD at 1 h,[3]; pH 5,3.03 ± 0.02
same,logP at 1 h,[3]; pH 5,3.03
same,logD at 1 h,[3]; pH 7.4,2.49 ± 0.04
same,"Papp at 4 h, 100 µM",[2]; pH 7.4,18.6 ×10⁻⁶ cm/s
same,Experimental log Pe value,[2],-4.73 ± 0.04
same,Membrane retention,[2],32.51% and 31.51 ± 4.04%
O=c1c(/C=N/c2ccc(Cl)cc2O)coc2ccccc12 [CHEMBL4086270],Selectivity,MAO-B vs MAO-A,0.7978
Cc1ccc(O)c(/N=C/c2coc3ccc(C)cc3c2=O)c1 [CHEMBL4082612],Selectivity,MAO-B vs MAO-A,6.275
O=C1/C(=C/c2ccc(O)cc2)COc2cc(O)cc(O)c21 [CHEMBL1077616],IC50,"Monoamine oxidase B; human enzyme, closest reference structures, ref ChEMBl database, read-out: IC50 values (MAO-B)",8.71 µM
O=c1c(/C=N/c2cc(F)ccc2O)coc2ccccc12 [CHEMBL4082043],Selectivity,MAO-B vs MAO-A,2.612
Cn1c(=O)c2c(ncn2C)n(C)c1=O [Caffeine],log BB literature value,[1],0.01
same,"Papp at 4 h, 100 µM",[2],3.24 ×10⁻⁶ cm/s
COc1ccc2c(c1)O[C@H]1c3ccc(O)cc3OC[C@@H]21 [Medicarpin],Experimental log Pe value,"[4]; 4 h, 100 µM",-4.45
same,Experimental log Pe value,[4],-4.45 ± 0.04
same,Experimental log P,pH 5,3.03
same,Measured log D^7.4 ± SE,pH 7.4,3.03 ± 0.02
same,IC50,MAO-B,0.3 µM
"c1ccc2c(c1)OCC(C1=NCCN1)O2 (stereo not shown) [CHEMBL10316, IDAZOXAN]","pChEMBL Value, Type B","Monoamine oxidase B; MAO-B, ref ChEMBL database",6
same,IC50,"Monoamine oxidase B; MAO-B, ref ChEMBL database, read-out: Standard Value (IC50), Type B",1 µM
same,"pChEMBL Value, MAO B","Monoamine oxidase B; human enzyme, lines marked B, ref ChEMBl database",6
same,IC50,"Monoamine oxidase B; human enzyme, lines marked B, ref ChEMBl database, read-out: Standard Value (IC50), MAO B",1 µM
same,"pChEMBL Value, Type A","Monoamine oxidase A; MAO-A, ref ChEMBL database",6
same,"pChEMBL Value, MAO A","Monoamine oxidase A; human enzyme, ref ChEMBl database",6
same,IC50,"Monoamine oxidase A; read-out: Standard Value (IC50), MAO A, human enzyme, ref ChEMBl database",1 µM
same,IC50,"Monoamine oxidase A; read-out: Standard Value (IC50), Type A, MAO-A, ref ChEMBL database",1 µM
same,Selectivity index,MAO-B vs MAO-A; MAO-A IC50 / MAO-B IC50 of ChEMBL reference structures,1
O=C1/C(=C/c2ccc(O)cc2)Cc2cc(O)ccc21 [CHEMBL3890408],Selectivity,MAO-B vs MAO-A,0.6095 and 0.61
Cc1ccc(O)c(/N=C/c2coc3ccccc3c2=O)c1 [CHEMBL4100473],Selectivity,MAO-B vs MAO-A,2.956
N#Cc1ccc(/C=C2\Cc3cc(O)ccc3C2=O)cc1 [CHEMBL3900500],Selectivity,MAO-B vs MAO-A,6.582
COc1ccc(-c2coc3cc(O)ccc3c2=O)cc1 [Formononetin],logD at 1 h,[3]; pH 5,2.83 ± 0.05
same,logP at 1 h,[3]; pH 5,2.83
same,logD at 1 h,[3]; pH 7.4,2.73 ± 0.07
same,"Papp at 4 h, 100 µM",[2]; pH 7.4,10 ×10⁻⁶ cm/s
same,Experimental log Pe value,[2],-5.00 ± 0.11
same,Membrane retention,[2],27.25% and 27.25 ± 6.43%
N#Cc1cccc(/C=C2\Cc3cc(O)ccc3C2=O)c1 [CHEMBL3971638],Selectivity,MAO-B vs MAO-A,3.415
O=C1/C(=C/c2cccc(Br)c2)Cc2cc(O)ccc21 [CHEMBL3979091],Selectivity,MAO-B vs MAO-A,10.0769
COc1ccc(C2COc3cc(O)ccc3C2=O)c(OC)c1 (stereo not shown) [Sativanone],logD at 1 h,[3]; pH 5,3.04 ± 0.01
same,logP at 1 h,[3]; pH 5,3.04
same,logD at 1 h,[3]; pH 7.4,2.75 ± 0.03
same,"Papp at 4 h, 100 µM",[2]; pH 7.4,17.4 ×10⁻⁶ cm/s
same,Experimental log Pe value,[2],-4.76 ± 0.07
same,Membrane retention,[2],33.66% and 33.66 ± 4.13%
COc1cccc(/C=C2\Cc3cc(O)ccc3C2=O)c1 [CHEMBL3918471],Selectivity,MAO-B vs MAO-A,2.527
CCN(CC)c1ccc(/C=C2\Oc3cc(O)cc(O)c3C2=O)cc1 [CHEMBL3786747],Selectivity,MAO-B vs MAO-A,0.3443
COc1ccc(-c2coc3cc(O)ccc3c2=O)cc1O [Calycosin],MAO-B selectivity index,MAO-B,293.8
same,IC50,MAO-B,0.24 µM
O=C(O)c1ccccc1O [Salicylic acid],log BB literature value,[1],-1.10
same,"Papp at 4 h, 100 µM",[2],0.00851 ×10⁻⁶ cm/s
O=C1/C(=C/c2ccc(Cl)cc2)Cc2cc(O)ccc21 [CHEMBL3907033],Selectivity,MAO-B vs MAO-A,57
C[C@@H]1O[C@@H](OC[C@H]2O[C@@H](Oc3c(-c4ccc(O)c(O)c4)oc4cc(O)cc(O)c4c3=O)[C@H](O)[C@@H](O)[C@@H]2O)[C@H](O)[C@H](O)[C@H]1O [Rutin],log BB literature value,[1],-1.22
same,"Papp at 4 h, 100 µM",[2],0.00776 ×10⁻⁶ cm/s
O=C(Nc1ccc(O)c(O)c1)c1cc(=O)c2ccccc2o1 [CHEMBL1814057],Selectivity,MAO-B vs MAO-A,0.07
CCN(C)c1ccc(/C=C2\Oc3cc(O)cc(O)c3C2=O)cc1 [CHEMBL3786785],Selectivity,MAO-B vs MAO-A,0.03453
O=C1/C(=C/c2ccc(N3CCOCC3)cc2)Oc2cc(O)cc(O)c21 [CHEMBL1814450],Selectivity,MAO-B vs MAO-A,3.176
COc1cc(-c2coc3cc(O)ccc3c2=O)ccc1O [Calycosin D],logD at 1 h,[3]; pH 5,2.48 ± 0.02
same,logP at 1 h,[3]; pH 5,2.48
same,logD at 1 h,[3]; pH 7.4,2.21 ± 0.04
same,"Papp at 4 h, 100 µM",[2]; pH 7.4,2.5 ×10⁻⁶ cm/s
same,Experimental log Pe value,[2],-5.60 and -5.60 ± 0.07
same,Membrane retention,[2],16.49% and 16.49 ± 1.38%
same,BBB category from Pe,[2]; categorization of Di et al.,uncertain
same,BBB category from log Pe,[2]; cut-off of Könczöl et al.,well-permeating
same,BBB category from log Pe,[2]; cut-off of Mensch et al.,BBB-
O=C1/C(=C/c2ccc(N3CCCC3)cc2)Oc2cc(O)cc(O)c21 [CHEMBL3786282],Selectivity,MAO-B vs MAO-A,1.1688
Oc1ccc2c(c1)OC[C@H]1c3cc4c(cc3O[C@@H]21)OCO4 [Maackiain],Experimental log Pe value,"[4]; 4 h, 100 µM",-4.48
same,Experimental log Pe value,[4],-4.48 ± 0.08
same,Measured log D^7.4 ± SE,"[3]; pH 7.4, 25°C",2.49 ± 0.02
same,Experimental log P,[3]; unionized form (pH 5 for isoflavones and isoflavanones),2.49
same,MAO-B selectivity index,MAO-B,126.2
same,Type of MAO-B inhibition,MAO-B,reversible
same,IC50,MAO-B,0.68 µM
O=C1/C(=C/c2ccc(F)cc2)Cc2cc(O)ccc21 [CHEMBL3933900],Selectivity,MAO-B vs MAO-A,14.4468
Cc1ccc2occ(/C=N/c3cc(F)ccc3O)c(=O)c2c1 [CHEMBL4090445],Selectivity,MAO-B vs MAO-A,1.637
COc1ccc(C2CC(c3ccc(O)cc3)=NN2C(C)=O)cc1 (stereo not shown) [CHEMBL65761],Selectivity,MAO-B vs MAO-A,0.00125
"O=c1c2ccccc2sc2cc(O)cc(O)c12 [CHEMBL2018439, 1,3-Dihydroxythioxanthone]",Selectivity,MAO-B vs MAO-A,0.9333
Cc1ccc2occ(/C=N/c3ccc(Cl)cc3O)c(=O)c2c1 [CHEMBL4099570],Selectivity,MAO-B vs MAO-A,2.863
O=C(Nc1ccc(O)cc1)c1coc2ccccc2c1=O [CHEMBL1814064],Selectivity,MAO-B vs MAO-A,74.375 and 74.38
CN(C)c1ccc(/C=C2\Oc3cc(O)cc(O)c3C2=O)cc1 [CHEMBL2288402],Selectivity,MAO-B vs MAO-A,0.04 and 0.03923
O=C1/C(=C/c2ccc(O)c(O)c2)COc2ccccc21 [CHEMBL1766558],Selectivity,MAO-B vs MAO-A,33.7319 and 33.73
O=C1/C(=C/c2cccc(F)c2)Cc2cc(O)ccc21 [CHEMBL3965044],Selectivity,MAO-B vs MAO-A,5.452
Cc1ccc2occ(/C=N/c3cc(Cl)ccc3O)c(=O)c2c1 [CHEMBL4073506],Selectivity,MAO-B vs MAO-A,3.391
